{"source": "patent US6365625B1", "about": "“Compound for inhibiting HIV infectivity” (Procept, Inc., priority 1993, dated 2002)", "key": {"HIV-1 14aPre": {"system": "HIV-1 14aPre", "assay": "Drug combination studies, neutralization of HIV-1 14aPre", "assay_type": "cell-based"}, "HIV-1 (JR-CSF)": {"system": "HIV-1 (JR-CSF)", "assay_type": "cell-based"}, "[1]": {"system": "gp120-mediated syncytium formation", "assay": "Inhibition of gp120-mediated syncytium formation (HL2/3 and HeLa-CD4-LTR-β-gal cells)", "details": "48 hours; PIC 024.4 based on 100% polymer by weight", "protocol": "The effect of test compound on syncytium formation was evaluated using an assay developed by Dr. George Pavlakis and coworkers (Ciminale, V. et al., AIDS Res. Hum. Retro-viruses 6:1281-1287 (1990)). […] The cultures were then incubated in the presence of drug for 48 hours at 37° C., fixed and stained with X-gal. Blue syncytia were counted using an inverted microscope, and percent inhibition and IC50 values were calculated."}, "HIV-1 (ADA)": {"system": "HIV-1 (ADA)", "assay": "microbe, parasite or virus in culture", "assay_type": "cell-based", "details": "Human immunodeficiency virus 1, Monocyte, monocytes"}, "[2]": {"molecular_target": "T1, OKT4 binding to recombinant sCD4 (Homo sapiens, UniProt P01730)", "T1 construct": "Plates coated with recombinant, soluble CD4 were treated with antibody", "assay": "Inhibition of monoclonal antibody OKT4 binding to CD4 (ELISA)", "details": "antibody 30 ng/ml", "method": "(§1) A panel of related ELISA systems was used to evaluate the effect of test compounds on the binding of various monoclonal antibodies to recombinant sCD4 absorbed on plastic. Two of these antibodies, Leu3A and 19Thy, are directed against gp120 binding site on CD4. […] The ELISA formats were similar to those used to measure gp120 binding to CD4. Plates coated with recombinant, soluble CD4 were treated with antibody (30 ng/ml) and serial dilutions of drug. After incubation and washing, bound antibody was detected using an appropriate isotype-specific anti-immunoglobulin alkaline phosphatase conjugate."}, "[3]": {"molecular_target": "T2, Leu3A binding to recombinant sCD4 (Homo sapiens, UniProt P01730)", "T2 construct": "Plates coated with recombinant, soluble CD4 were treated with antibody", "assay": "Inhibition of monoclonal antibody Leu3A binding to CD4 (ELISA)", "details": "antibody 30 ng/ml; read-out: IC50 MAb binding inhibition, Leu3A (converted)", "method": "as §1"}, "[4]": {"molecular_target": "T3, 19Thy binding to recombinant sCD4 (Homo sapiens, UniProt P01730)", "T3 construct": "Plates coated with recombinant, soluble CD4 were treated with antibody", "assay": "Inhibition of monoclonal antibody 19Thy binding to CD4 (ELISA)", "details": "antibody 30 ng/ml; read-out: IC50 MAb binding inhibition, 19Thy (converted)", "method": "as §1"}, "gp120/CD4": {"molecular_target": "T4, gp120/CD4 (Homo sapiens, UniProt P01730)", "T4 construct": "recombinant, soluble four-domain CD4 (sCD4) expressed in insect cells; host or cells: insect cells (sCD4)", "assay": "biochemical", "assay_type": "binding", "protocol": "Polystyrene 96-well microtiter plates were treated with a 1 μg/ml solution of recombinant, soluble four-domain CD4 (sCD4) expressed in insect cells (100 μl/well) and allowed to incubate for two hours at room temperature. Plates were blocked for two hours at 4° C. with phosphate-buffered saline (PBS) containing 0.05% Tween-20 and 10 mg/ml bovine serum albumin (PBSTB, 200 μl/well), and then washed five times with PBS containing 0.05% Tween-20. Fifty microliters of 60 ng/ml recombinant gp120 (IIIB isolate) and 50 μl of each drug dilution in PBSTB were added to duplicate wells, and the plate was incubated overnight at 4° C. The plate was then washed five times with PBST and treated with a 210 μg/ml solution of monoclonal antibody NEA 9205 (100 gp120-III/well). This antibody recognizes the V3 loop region of gp120-IIIB. After incubation for 2 hours at 4° C., the plate was washed five times with PBST and treated with an anti-mouse IgGl antibody conjugated to alkaline phosphatase. After an additional incubation for 1 hour at 4° C., the plate was washed five times with PBST, treated with a p-nitrophenyl phosphate substrate solution, incubated for about 30 minutes at room temperature, and monitored for color development at 405 nm. […]"}, "HIV-1, strain HTLV-IIIB": {"system": "HIV-1, strain HTLV-IIIB", "assay_type": "cell-based", "details": "CEM-T4 cells, day 8; PIC 024.4 30% polymer by weight", "protocol": "Dilutions were prepared in culture medium, and the compound was tested at concentrations ranging from 100 μg/ml to 0.003 μg/ml in half-log10 dilutions.\nThe assay was done in 96-well tissue culture plates using the CEM-T4 human T-lymphocyte cell line. The culture medium used was RPMI-1640 medium containing 25 mM N-[2-Hydroxyethyl]piperazine-n^1-[2-ethanesulfonic acid] (HEPES, Sigma Chemical Co.) and 2 mM L-glutamine, and supplemented with 10% fetal bovine serum, 2 mM L-glutamine, 50 units of penicillin G per ml, and 50 μg streptomycin sulfate per ml. CEM-T4 cells were treated with polybrene at a concentration of 2 μg/ml, and a 130 μl volume of cells (1×10^4 cells) was dispensed into each well. To one assay plate for each drug a 50 μl volume of each drug dilution (prepared as a 4×concentration) was added to five wells of cells, and the cells were incubated at 37° C. for two hours. […]\nOn the eighth day post-infection, the cells in each well were suspended and a 50-μl sample of each cell suspension was transferred to a new 96-well plate for use in the following assay. […] The absorbance at 590 nm was determined for each sample using a Molecular Devices Vmax microplate reader. […] When a dose-dependent effect for either CPE-inhibition or toxicity was seen, values for the 50% effective dose were calculated using the dose-effect analysis software of Chou and Chou (Elsevier-Biosoft)."}, "[5]": {"molecular_target": "T5, gp120 binding to CD4 receptor on CEM cells (Homo sapiens, UniProt P01730)", "T5 construct": "the CD4 receptor expressed on the surface of lymphocytic cells; endogenous in cells; host or cells: CEM cells", "assay_type": "cell-based", "details": "recombinant gp120 (IIIB) 10 nM; PIC 024.4 based on 100% polymer by weight", "protocol": "This assay was used to measure the ability of test compounds to inhibit the binding of recombinant gp120 to the CD4 receptor expressed on the surface of lymphocytic cells. Cells of the CEM line (a CD4+ human T cell leukemia line) were suspended at 3×10^6 cells/ml in RPMI 1640 medium supplemented with 10% fetal bovine serum (FBS) containing 0.002% sodium azide, and 100 μl was aliquoted to individual assay tubes. Serial dilutions of test compound in water were added (10 μl/tube) and the tubes incubated for 2 hours at 25° C. Next, recombinant gp120 (IIIB isolate) diluted in RPMI 1640 buffer was added to a final concentration of 10 nM (1.2 μg/ml) and the tubes incubated overnight at 37° C. Cells were then washed thoroughly with PBS containing 10% FBS and 0.01% sodium azide. V3-specific monoclonal antibody NEA9284 was added to a concentration of 1 μg/ml and incubated for 30 minutes on ice. The cells were washed thoroughly as before and stained with fluorescein-labeled goat anti-mouse immunoglobulin for 30 minutes on ice. The washed cells were analyzed for mean fluorescence on a FACScan™ flow cytometer (Becton Dickinson). Percent inhibition of fluorescence was determined relative to cells that were not treated with drug."}, "IIIB": {"system": "IIIB", "details": "cited from earlier work"}, "gp120 (SF2 isolate)/sCD4": {"molecular_target": "T6, gp120 (SF2 isolate)/sCD4 (Homo sapiens, UniProt P01730)", "T6 construct": "recombinant sCD4 was immobilized to the sensor surface", "assay_type": "binding", "source_text": "This assay provided a direct measure of the ability of test compounds to inhibit the gp120/CD4 binding interaction. The BIAcore™ biosensor (Pharmacia Biosensor) allows for real-time interaction analysis without the need for labeling (Jonsson et al., BioTechniques 11:620-627 (1991); Malmquist, Nature 361:186-198 (1993)). Its operation is based on optical surface plasmon resonance (SPR) for detecting small changes in the refractive index on the surface of a thin gold film coated with a dextran matrix to which one ligand is immobilized. In the experiments described here, recombinant sCD4 was immobilized to the sensor surface by a standard amine coupling chemistry. Recombinant gp120 (SF2 isolate), alone or in the presence of test compound, was passed over the surface, and binding monitored by a change in “resonance units” (RU's). Percent inhibition was determined relative to RU levels observed in the absence of drug. A correction was made to account for the mass of the test article."}, "monocytotropic isolates": {"system": "monocytotropic isolates", "details": "cited from earlier work"}, "[6]": {"molecular_target": "T7, gp120 binding to CD4 receptor on lymphocytes in whole blood (Homo sapiens, UniProt P01730)", "T7 construct": "the CD4 receptor expressed on the surface of lymphocytes in whole blood; from tissue; host or cells: freshly collected anticoagulated whole blood from normal donors", "assay_type": "cell-based", "details": "gp120-biotin 10 nM", "method": "This assay was used to measure the ability of test compounds to inhibit the binding of recombinant gp120 to the CD4 receptor expressed on the surface of lymphocytes in whole blood. Freshly collected, anticoagulated whole blood from normal donors (100 μl per tube) was treated with test compound and incubated for 2 hours at room temperature. The tubes were then treated with gp120-biotin (American Bio-Technology Products) to a final concentration of 10 nM, and incubated for an additional 3 hours at room temperature. Cells were then stained with fluorescein-labeled streptavidin (Becton Dickinson), treated with lysis buffer (Becton Dickinson), and washed with PBS containing 0.1% azide. Cells were then subjected to flow cytometric analysis on a FACScan™ flow cytometer (Becton Dickinson) and the mean fluorescence for the lymphocyte population was measured. Percent inhibition of fluorescence was determined relative to cells that were not treated with drug."}}, "note": "Where two headings read alike, the source gives them in different places.", "data": [{"compound": "Cc1cn([C@H]2C[C@H](N=[N+]=[N-])[C@@H](CO)O2)c(=O)[nH]c1=O", "note": "[AZT, zidovudine]", "values": [{"measurement": "Table 8 readout of HIV-1 14aPre growth", "setting": "HIV-1 14aPre; AZT 0.005 μM alone", "result": 25}, {"measurement": "Table 8 readout of HIV-1 14aPre growth", "setting": "HIV-1 14aPre; AZT 0.01 μM alone", "result": 17.5}, {"measurement": "Table 8 readout of HIV-1 14aPre growth", "setting": "HIV-1 14aPre; AZT 0.02 μM alone", "result": 9.8}, {"measurement": "p24 levels", "setting": "HIV-1 (JR-CSF); 0.004-50 μM, drug added 2 hours prior to infection", "result": "substantially reduced"}, {"measurement": "Antiviral Activity ID50, JR-CSF", "setting": "HIV-1 (JR-CSF); PHA blasts, PIC 024.4 30% polymer by weight", "result": 0.001, "unit": "µg/mL"}, {"measurement": "IC50 syncytium inhibition (HL2/3)", "setting": "[1]", "result": "inactive"}, {"measurement": "EC50", "setting": "HIV-1 (ADA); 168 h, read-out: EC50, Day 7", "result": 0.005, "unit": "µg/mL"}, {"measurement": "EC90", "setting": "HIV-1 (ADA); 168 h, read-out: EC90, Day 7", "result": 0.02, "unit": "µg/mL"}, {"measurement": "EC50", "setting": "HIV-1 (ADA); 336 h, read-out: EC50, Day 14", "result": 0.003, "unit": "µg/mL"}, {"measurement": "EC90", "setting": "HIV-1 (ADA); 336 h, read-out: EC90, Day 14", "result": 0.01, "unit": "µg/mL"}]}, {"compound": "O=C(O)C1=CC(=C(c2ccc(O)c(C(=O)O)c2)c2ccc(O)c(C(=O)O)c2)C=CC1=O", "note": "[Aurintricarboxylic acid]", "values": [{"measurement": "IC50 MAb binding inhibition, OKT4", "setting": "[2]", "result": "did not affect"}, {"measurement": "IC50", "setting": "[3]", "result": 294, "unit": "µM"}, {"measurement": "IC50", "setting": "[4]", "result": 206, "unit": "µM"}, {"measurement": "IC50", "setting": "gp120/CD4", "result": "~2.37", "unit": "µM"}]}, {"compound": "OC[C@@H]1CC[C@H](n2cnc3c(O)ncnc32)O1", "note": "[ddI, 2′,3′-Dideoxyinosine]", "values": [{"measurement": "Antiviral Activity ID50, IIIB", "setting": "HIV-1, strain HTLV-IIIB", "result": 1.2, "unit": "µg/mL"}, {"measurement": "Table 8 readout of HIV-1 14aPre growth", "setting": "HIV-1 14aPre; DDI 1.25 μM alone", "result": 36.5}, {"measurement": "Table 8 readout of HIV-1 14aPre growth", "setting": "HIV-1 14aPre; DDI 5 μM alone", "result": 11.2}, {"measurement": "Table 8 readout of HIV-1 14aPre growth", "setting": "HIV-1 14aPre; DDI 10 μM alone", "result": 1.2}]}, {"compound": "dextran sulfate", "values": [{"measurement": "IC50 gp120/CEM binding inhibition", "setting": "[5]", "result": 23, "unit": "µg/mL"}, {"measurement": "Antiviral Activity ID50, IIIB", "setting": "IIIB; AHT 8", "result": 8, "unit": "µg/mL"}, {"measurement": "Antiviral Activity ID50, IIIB", "setting": "IIIB; TM 11", "result": 4, "unit": "µg/mL"}, {"measurement": "IC50 syncytium inhibition (HL2/3)", "setting": "[1]", "result": 0.9, "unit": "µg/mL"}, {"measurement": "IC50 BIAcore inhibition", "setting": "gp120 (SF2 isolate)/sCD4", "result": "inactive"}, {"measurement": "IC50 gp120/CD4 binding inhibition (ELISA)", "setting": "gp120/CD4; recombinant gp120 IIIB, recombinant sCD4, PIC 024.4 based on 100% polymer by weight", "result": "inactive"}, {"measurement": "activity against many monocytotropic isolates", "setting": "monocytotropic isolates", "result": "inactive"}, {"measurement": "IC50 gp120/whole blood binding inhibition", "setting": "[6]", "result": "≥ 1000", "unit": "µg/mL"}]}]}
